The target in one assay is T1, 5-HT1A human receptors (Homo sapiens, UniProt P08908).
T1 construct: expressed in transfected cells; host or cells: CHO cells
T1 sequence (P08908 1-422): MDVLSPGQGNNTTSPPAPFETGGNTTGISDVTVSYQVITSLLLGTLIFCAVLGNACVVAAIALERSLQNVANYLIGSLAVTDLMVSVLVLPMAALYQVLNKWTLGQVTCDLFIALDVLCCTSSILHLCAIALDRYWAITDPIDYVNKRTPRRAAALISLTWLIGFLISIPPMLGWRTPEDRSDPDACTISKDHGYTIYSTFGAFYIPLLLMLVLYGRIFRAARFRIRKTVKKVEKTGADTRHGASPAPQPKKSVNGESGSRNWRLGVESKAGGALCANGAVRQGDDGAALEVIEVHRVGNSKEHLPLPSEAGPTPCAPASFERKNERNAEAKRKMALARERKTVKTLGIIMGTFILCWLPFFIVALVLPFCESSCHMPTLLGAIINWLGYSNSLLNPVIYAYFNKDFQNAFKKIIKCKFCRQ
Kind of assay: 5-HT1A Radioligand Receptor Binding Assay ([3H]-8-OH-DPAT, CHO cell membranes). Particulars: for IC50: [3H]-8-OH-DPAT displacement, CHO membranes, read-out: 5-HT1A receptor binding IC50; for inhibition at 0.1 µM: compound at 10^-7 M, singlicate, [3H]-8-OH-DPAT 0.6-0.7 nM, read-out: 5-HT1A receptor binding assay % inhib. (10^-7 M). The method, then: Membranes from CHO cells, expressing 5-HT1A human receptors were suspended in incubation buffer.
The compounds were tested in singlicate at one concentration (10^-7 M) in a total volume of 1000 µl. 980 µl of diluted membranes, 10 µl DMSO or unlabelled ligand and 10 µl of [^3H]-8-OH-DPAT (0.6-0.7 nM) were incubated for 60 min at 27 °C. The reaction was stopped by rapid filtration through Tomtec cell Harvester (48 wells) using Filtermat B (presoaked in 0.1% PEI) filters. […] Non specific binding was determined in the presence of 5-HT (10^-5 M).
(§1) The specific radioligand binding to the receptor was defined by the difference between total binding and non specific binding, determined in the presence of an excess of unlabelled ligand. Results were expressed as percentage of control specific binding obtained in the presence of the compounds.
The affinity values (IC50) for the compounds were obtained by a non linear least squares regression analysis on the basis of a one binding site model.

A further assay deals with T2, CHO/5-HT1A cells (Homo sapiens, UniProt P08908).
T2 construct: expressed in transfected cells; host or cells: CHO/5-HT1A cells
T2 sequence (P08908 1-422): T1 sequence (P08908 1-422)
Kind of assay: 5-HT1A Functional assay (cAMP). It is filed as cell-based. The following applies: 10 µM compound, % inhibition of the cAMP accumulation induced by 10 µM FSK; for inhibition at 10 µM: read-out: 5-HT1A cAMP % inhib. As to the method: CHO/5-HT1A cells were random seeded at a density of about 200,000/well in 24 well plates the day prior to the experiment. On the day of the experiment, cells were pretreated for 15 min at 37 °C with 500 µM isobuthylmethylxantine (IBMX) dissolved in culture medium without serum. Wells were then divided in different groups in duplicate as follows: control, 10 µM FSK, 10 µM FSK + 1 µM 5-HT as positive standard and 10 µM FSK + 10 µM of the different compound under evaluation. Sample solutions were added and incubated for additional 15 min at 37 °C. After incubation, medium was aspirated and the reaction stopped by adding 200 µl of lysis buffer. Plates were shaken for 5 min, then the lysate was removed and samples were stored at 4 °C until the day of the assay. For the cAMP evaluation, samples were properly diluted and the cAMP content was measured by an enzymeimmunoassay system.

Another assay has as its target T3, D4 human receptors (Homo sapiens, UniProt P21917).
T3 construct: expressed in transfected cells; host or cells: CHO cells
T3 sequence (P21917 1-419): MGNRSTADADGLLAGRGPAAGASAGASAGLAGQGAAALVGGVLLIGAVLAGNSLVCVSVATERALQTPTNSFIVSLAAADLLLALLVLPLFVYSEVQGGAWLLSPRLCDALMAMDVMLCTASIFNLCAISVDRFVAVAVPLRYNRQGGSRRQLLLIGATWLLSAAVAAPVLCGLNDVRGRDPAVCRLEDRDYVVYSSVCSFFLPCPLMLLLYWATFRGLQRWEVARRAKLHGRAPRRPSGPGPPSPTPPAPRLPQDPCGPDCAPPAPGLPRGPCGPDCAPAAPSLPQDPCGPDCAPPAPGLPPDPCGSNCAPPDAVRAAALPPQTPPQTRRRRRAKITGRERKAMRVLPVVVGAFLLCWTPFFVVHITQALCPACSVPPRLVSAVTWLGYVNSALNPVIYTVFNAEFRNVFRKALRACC
Kind of assay: D4 Radioligand Receptor Binding Assay ([3H] YM-09151-2, CHO cell membranes). Particulars: compound at 10^-7 M, singlicate; [3H] YM-09151-2 0.15-0.25 nM; read-out: D4 receptor binding assay % inhib. (10^-7 M). As to the method: Membranes from CHO cells, expressing D4 human receptors were suspended in incubation buffer.
Binding assays were performed in MultiProbe 204 pipetting system (Packard), according to a predetermined mapping, consistent with the software Screen. The compounds were tested in singlicate at one concentration (10^-7 M) in a total volume of 1000 µl (980 µl of diluted membranes, 10 µl DMSO or unlabelled ligand and 10 µl of [^3H] YM-09151-2 (0.15-0.25 nM). After incubation for 120 min at 27 °C, the reaction was stopped by rapid filtration through Tomtec cell Harvester (48 wells) using Filtermat B (presoaked in 0.1% PEI) filters. Filters were washed with ice-cold 50 mM Tris-HCl (pH 7.4) buffer (9 x 700 µl), dryed, covered with MeltiLex B/HS (Wallac) scintillator sheets and heated in oven at 80-90 °C for about 10 min, transferred into plastic sample bags (Wallac), sealed and put into 1024 Beta Plate scintillation counter (Wallac). Non specific binding was determined in the presence of clozapine dissolved in DMSO to a final concentration of 10^-5 M.
as §1

This note sets out measurements from patent publication EP1322622B1, “NEW N, N'-DISUBSTITUTED BENZIMIDAZOLONE DERIVATIVES WITH AFFINITY AT THE SEROTONIN AND DOPAMINE RECEPTORS” (Sprout Pharmaceuticals, Inc., priority 2000, dated 2002).

The structures appear in SMILES notation.

Regarding `CCNC(=O)OCCn1c(=O)n(CCN2CCN(c3cccc(Cl)c3)CC2)c2ccccc21` [compound 202], the IC50 at 5-HT1A human receptors amounted to 1.7 nM. Besides, at CHO/5-HT1A cells, the inhibition at 10 µM turned out to be 72%.

For the molecule `CCNC(=O)OCCn1c(=O)n(CCN2CCN(c3cccc(C)c3)CC2)c2ccccc21` [compound 217], the IC50 on 5-HT1A human receptors was 5.2 nM. The inhibition at 10 µM on CHO/5-HT1A cells worked out at 68%.

As for `O=c1n(C/C=C\CN2CCN(c3cccc(Cl)c3)CC2)c2ccccc2n1CCN1CCOCC1` [compound 263], at CHO/5-HT1A cells, the inhibition at 10 µM came out at 63%.

For the molecule `COCCn1c(=O)n(CC=CCN2CCN(c3cccc(C(F)(F)F)c3)CC2)c2ccccc21` [compound 284], on CHO/5-HT1A cells, the inhibition at 10 µM is 82%.

For the molecule `COCCn1c(=O)n(C/C=C/CN2CCN(c3ccccn3)CC2)c2ccccc21` [compound 296], the inhibition at 10 µM on CHO/5-HT1A cells stood at 82%.

`COCCn1c(=O)n(C/C=C/CN2CCN(c3cccc(Cl)c3)CC2)c2ccccc21` [compound 297]: at CHO/5-HT1A cells, the inhibition at 10 µM worked out at 74%.

Consider `COCCn1c(=O)n(CC=CCN2CCN(c3cccc(C(F)(F)F)c3)CC2)c2ccccc21` [compound 301], for which the “5-HT1A cAMP % inhib.” value at CHO/5-HT1A cells came to 83%.

Regarding `O=c1n(C/C=C\CN2CCc3c([nH]c4ccccc34)C2)c2ccccc2n1CCN1CCCCC1` [compound 316], the inhibition at 0.1 µM is 72% at 5-HT1A human receptors and 94% at D4 human receptors.

Turning to `O=c1n(C/C=C\CN2CC=C(c3ccccc3)CC2)c2ccccc2n1CCN1CCCCC1` [compound 319], the results for the inhibition at 0.1 µM at 5-HT1A human receptors and at D4 human receptors were 94% and 70%, respectively.

For the molecule `O=c1n(C/C=C/CN2CCN(c3ccccn3)CC2)c2ccccc2n1CCN1CCOCC1` [compound 347], at CHO/5-HT1A cells, the inhibition at 10 µM came out at 65%.

`O=c1n(C/C=C/CN2CCN(c3cccc(Cl)c3)CC2)c2ccccc2n1CCN1CCOCC1` [compound 348]: the inhibition at 0.1 µM came to 99% at 5-HT1A human receptors and 51% on D4 human receptors.

For `O=c1n(C/C=C/CN2CCN(c3cccc(C(F)(F)F)c3)CC2)c2ccccc2n1CCN1CCOCC1` [compound 352], the inhibition at 10 µM on CHO/5-HT1A cells was 79%.

For `O=c1n(C/C=C\CN2CCN(c3ccccc3)CC2)c2ccccc2n1CCO` [compound 361], the inhibition at 0.1 µM on 5-HT1A human receptors was 86%; on D4 human receptors, 46%.

Take `O=c1n(C/C=C\CN2CCN(c3ccccn3)CC2)c2ccccc2n1CCO` [compound 364]: the inhibition at 0.1 µM on 5-HT1A human receptors is 77%; on D4 human receptors it was 36%.

Turning to `O=c1n(C/C=C\CN2CCN(c3cccc(Cl)c3)CC2)c2ccccc2n1CCO` [compound 365], on 5-HT1A human receptors, the inhibition at 0.1 µM came to 89%. The inhibition at 10 µM on CHO/5-HT1A cells was found to be 82%.

`O=c1n(C/C=C\CN2CCc3c([nH]c4ccccc34)C2)c2ccccc2n1CCO` [compound 367]: the results for the inhibition at 0.1 µM on 5-HT1A human receptors and on D4 human receptors were 61% and 90%, respectively.

Take `O=c1n(C/C=C\CN2CCN(c3ccc(Cl)c(Cl)c3)CC2)c2ccccc2n1CCO` [compound 371]: the values for the inhibition at 0.1 µM at 5-HT1A human receptors and on D4 human receptors were 59% and 95%, respectively.

As to `O=c1n(C/C=C/CN2CCN(c3ccccc3)CC2)c2ccccc2n1CCO` [compound 378], the inhibition at 0.1 µM on 5-HT1A human receptors stood at 77%; at D4 human receptors, 35%.

As for `O=c1n(C/C=C/CN2CCN(c3ccccn3)CC2)c2ccccc2n1CCO` [compound 381], at CHO/5-HT1A cells, the inhibition at 10 µM is 79%.

For the molecule `CCNC(=O)OCCn1c(=O)n(C/C=C\CN2CCN(c3ccccc3)CC2)c2ccccc21` [compound 395], the inhibition at 0.1 µM was 86% on 5-HT1A human receptors and 32% on D4 human receptors.

As to `CCNC(=O)OCCn1c(=O)n(CC=CCN2CCN(c3cccc(C(F)(F)F)c3)CC2)c2ccccc21` [compound 403], at CHO/5-HT1A cells, the inhibition at 10 µM was 84%.

As for `CCNC(=O)OCCn1c(=O)n(C/C=C/CN2CCN(c3ccccc3)CC2)c2ccccc21` [compound 412], the inhibition at 0.1 µM at 5-HT1A human receptors worked out at 93%; on D4 human receptors, 39%.

For `CCNC(=O)OCCn1c(=O)n(C/C=C/CN2CCN(c3ccccn3)CC2)c2ccccc21` [compound 415], the inhibition at 10 µM at CHO/5-HT1A cells amounted to 82%.

In the case of `CCNC(=O)OCCn1c(=O)n(CC=CCN2CCN(c3cccc(C(F)(F)F)c3)CC2)c2ccccc21` [compound 420], the “5-HT1A cAMP % inhib.” value on CHO/5-HT1A cells is recorded as 87%.

Consider `CCNC(=O)OCCn1c(=O)n(CC=CCN2CC=C(c3ccccc3)CC2)c2ccccc21` [compound 421], for which, on CHO/5-HT1A cells, the “5-HT1A cAMP % inhib.” value came to 56%.

For the molecule `CC(=O)NCCn1c(=O)n(C/C=C\CN2CCN(c3cccc(C(F)(F)F)c3)CC2)c2ccccc21` [compound 459], the inhibition at 10 µM on CHO/5-HT1A cells was determined as 86%.

Regarding `CC(=O)NCCn1c(=O)n(C/C=C\CN2CCN(c3ccccc3Cl)CC2)c2ccccc21` [compound 472], at CHO/5-HT1A cells, the inhibition at 10 µM was 67%.

Take `CS(=O)(=O)NCCn1c(=O)n(CC=CCN2CCN(c3cccc(Cl)c3)CC2)c2ccccc21` [compound 499]: the inhibition at 10 µM on CHO/5-HT1A cells stood at 74%.

Turning to `CS(=O)(=O)NCCn1c(=O)n(C/C=C\CN2CCc3c([nH]c4ccccc34)C2)c2ccccc21` [compound 501], the inhibition at 0.1 µM amounted to 70% at 5-HT1A human receptors and 63% on D4 human receptors.

For the molecule `CS(=O)(=O)NCCn1c(=O)n(C/C=C\CN2CCN(c3cccc(C(F)(F)F)c3)CC2)c2ccccc21` [compound 503], the inhibition at 10 µM at CHO/5-HT1A cells is 87%.

`CS(=O)(=O)NCCn1c(=O)n(C/C=C\CN2CCN(c3ccc(Cl)c(Cl)c3)CC2)c2ccccc21` [compound 505]: the inhibition at 0.1 µM at 5-HT1A human receptors turned out to be 78%; on D4 human receptors, 58%.

Take `Cc1cccc(N2CCN(C/C=C\Cn3c(=O)n(CCNS(C)(=O)=O)c4ccccc43)CC2)c1C` [compound 512]: at CHO/5-HT1A cells, the inhibition at 10 µM stood at 68%.

As to `Cc1cccc(N2CCN(CC=CCn3c(=O)n(CCNS(C)(=O)=O)c4ccccc43)CC2)c1` [compound 514], on CHO/5-HT1A cells, the inhibition at 10 µM worked out at 67%.

Regarding `CS(=O)(=O)NCCn1c(=O)n(C/C=C/CN2CCN(c3ccccn3)CC2)c2ccccc21` [compound 520], at CHO/5-HT1A cells, the inhibition at 10 µM worked out at 70%.

For `CS(=O)(=O)NCCn1c(=O)n(CC=CCN2CCN(c3cccc(Cl)c3)CC2)c2ccccc21` [compound 521], the “5-HT1A cAMP % inhib.” value on CHO/5-HT1A cells came to 67%.

Take `CS(=O)(=O)NCCn1c(=O)n(C/C=C/CN2CCN(c3ccc(Cl)c(Cl)c3)CC2)c2ccccc21` [compound 527]: the values for the inhibition at 0.1 µM at 5-HT1A human receptors and at D4 human receptors were 73% and 36%, respectively.

Take `COc1ccccc1N1CCN(C/C=C/Cn2c(=O)n(CCNS(C)(=O)=O)c3ccccc32)CC1` [compound 535]: the inhibition at 0.1 µM on 5-HT1A human receptors amounted to 97%; on D4 human receptors, 39%.
